Here are results for 27 molecules from US8394801B2, “Quinoxaline derivatives and their use for treating benign and malignant tumour disorders” (Aeterna Zentaris GmbH, priority 2009, dated 2013).

Where only a bound is given, the exact number is not on record here.

Molecule `CNC(=O)Nc1cnc2ccc(-c3cc(C)c(O)c(C)c3)cc2n1` [Compound 16, 1-[7-(4-Hydroxy-3,5-dimethylphenyl)quinoxalin-2-yl]-3-methylurea] showed a melting point of 251 °C. For the molecule `CCNC(=O)Nc1cnc2ccc(-c3cc(C)c(O)c(C)c3)cc2n1` [Compound 19, 1-Ethyl-3-[7-(4-hydroxy-3,5-dimethylphenyl)quinoxalin-2-yl]urea], the melting point is 257 °C. For `Oc1c(Cl)cc(-c2ccc3ncc(NC(=S)NC4CCCCC4)nc3c2)cc1Cl` [Compound 21, 1-Cyclohexyl-3-[7-(3,5-dichloro-4-hydroxyphenyl)quinoxalin-2-yl]-thiourea] the value was 284 °C; for `Cc1cc(-c2ccc3ncc(NC(=S)NC4CCCC4)nc3c2)cc(C)c1O` [Compound 24, 1-Cyclopentyl-3-[7-(4-hydroxy-3,5-dimethylphenyl)quinoxalin-2-yl]-thiourea], 271 to 272 °C.

Consider `Cc1cc(-c2ccc3ncc(NC(=S)NC(C)(C)C)nc3c2)cc(C)c1O` [Compound 25, 1-tert-Butyl-3-[7-(4-hydroxy-3,5-dimethylphenyl)quinoxalin-2-yl]thiourea], for which the melting point is 238 to 240 °C. As for `CCCCCNC(=O)Nc1cnc2ccc(-c3cc(C)c(O)c(C)c3)cc2n1` [Compound 33, 1-[7-(4-Hydroxy-3,5-dimethylphenyl)quinoxalin-2-yl]-3-pentylurea], the melting point lay within 274 to 275 °C. As for `CCCCCCNC(=O)Nc1cnc2ccc(-c3cc(C)c(O)c(C)c3)cc2n1` [Compound 35, 1-Hexyl-3-[7-(4-hydroxy-3,5-dimethylphenyl)quinoxalin-2-yl]urea], the figure is 272 to 273 °C. For `Cc1ccc(NC(=O)Nc2cnc3ccc(-c4cc(C)c(O)c(C)c4)cc3n2)cc1` [Compound 46, 1-[7-(4-Hydroxy-3,5-dimethylphenyl)quinoxalin-2-yl]-3-p-tolylurea] the value was above 300 °C; for `Cc1cc(-c2ccc3ncc(NC(=O)Nc4ccc(Cl)c(Cl)c4)nc3c2)cc(C)c1O` [Compound 47, 1-(3,4-Dichlorophenyl)-3-[7-(4-hydroxy-3,5-dimethylphenyl)quinoxalin-2-yl]urea], above 300 °C. For `COc1ccc(NC(=O)Nc2cnc3ccc(-c4cc(C)c(O)c(C)c4)cc3n2)cc1` [Compound 48, 1-[7-(4-Hydroxy-3,5-dimethylphenyl)quinoxalin-2-yl]-3-(4-methoxy-phenyl)urea] the value was above 300 °C; for `Cc1cc(-c2ccc3ncc(NC(=O)Nc4ccc5ccccc5c4)nc3c2)cc(C)c1O` [Compound 50, 1-[7-(4-Hydroxy-3,5-dimethylphenyl)quinoxalin-2-yl]-3-naphthalen-2-ylurea], above 300 °C. For the molecule `Cc1cc(-c2ccc3ncc(NC(=O)NC(C)(C)CC(C)(C)C)nc3c2)cc(C)c1O` [Compound 51, 1-[7-(4-Hydroxy-3,5-dimethylphenyl)quinoxalin-2-yl]-3-(1,1,3,3-tetra-methylbutyl)urea], the melting point was above 300 °C. As for `Cc1cc(-c2ccc3ncc(NC(=O)Nc4cccnc4)nc3c2)cc(C)c1O` [Compound 52, 1-[7-(4-Hydroxy-3,5-dimethylphenyl)quinoxalin-2-yl]-3-pyridin-3-ylurea], the figure is 298 to 300 °C; as for `Cc1cc(-c2ccc3ncc(NC(=O)N[C@H](C)C(C)C)nc3c2)cc(C)c1O` [Compound 53, 1-((R)-1,2-Dimethylpropyl)-3-[7-(4-hydroxy-3,5-dimethylphenyl)-quinoxalin-2-yl]urea], 265 °C. `Cc1cc(-c2ccc3ncc(NC(=O)N[C@@H](C)C(C)C)nc3c2)cc(C)c1O` [Compound 54, 1-((S)-1,2-Dimethylpropyl)-3-[7-(4-hydroxy-3,5-dimethylphenyl)-quinoxalin-2-yl]urea] had a melting point of 267 °C. For `CCCCCNC(=O)Nc1cnc2ccc(-c3cc(Cl)c(O)c(Cl)c3)cc2n1` [Compound 71, 1-[7-(3,5-Dichloro-4-hydroxy-phenyl)-quinoxalin-2-yl]-3-pentyl-urea] the value was 297 to 298 °C.

Molecule `CCCCCCCNC(=O)Nc1cnc2ccc(-c3cc(Cl)c(O)c(Cl)c3)cc2n1` [Compound 75, 1-[7-(3,5-Dichloro-4-hydroxy-phenyl)-quinoxalin-2-yl]-3-heptyl-urea] had a melting point of 289 to 291 °C. As for `CC(C)NC(=O)Nc1cnc2ccc(-c3cc(Cl)c(O)c(Cl)c3)cc2n1` [Compound 76, 1-[7-(3,5-Dichloro-4-hydroxy-phenyl)-quinoxalin-2-yl]-3-isopropyl-urea], the figure is 298 to 300 °C.

In turn, `CC(C)(C)NC(=O)Nc1cnc2ccc(-c3cc(Cl)c(O)c(Cl)c3)cc2n1` [Compound 77, 1-tert-Butyl-3-[7-(3,5-dichloro-4-hydroxy-phenyl)-quinoxalin-2-yl]-urea] yielded a melting point of 292 to 295 °C. As for `O=C(Nc1cnc2ccc(-c3cc(Cl)c(O)c(Cl)c3)cc2n1)NC1CCCC1` [Compound 81, 1-Cyclopentyl-3-[7-(3,5-dichloro-4-hydroxy-phenyl)-quinoxalin-2-yl]-urea], the figure is 295 to 296 °C; as for `O=C(NCCCc1ccccc1)Nc1cnc2ccc(-c3cc(Cl)c(O)c(Cl)c3)cc2n1` [Compound 84, 1-[7-(3,5-Dichloro-4-hydroxy-phenyl)-quinoxalin-2-yl]-3-(3-phenyl-propyl)-urea], 271 to 274 °C.

Consider `O=C(Nc1ccccc1)Nc1cnc2ccc(-c3cc(Cl)c(O)c(Cl)c3)cc2n1` [Compound 86, 1-[7-(3,5-Dichloro-4-hydroxy-phenyl)-quinoxalin-2-yl]-3-phenyl-urea], for which the melting point was above 300 °C. As for `CCNC(=S)Nc1cnc2ccc(-c3cc(Cl)c(O)c(Cl)c3)cc2n1` [Compound 88, 1-[7-(3,5-Dichloro-4-hydroxy-phenyl)-quinoxalin-2-yl]-3-ethyl-thiourea], the figure is 237 to 238 °C; as for `CCCNC(=S)Nc1cnc2ccc(-c3cc(Cl)c(O)c(Cl)c3)cc2n1` [Compound 89, 1-[7-(3,5-Dichloro-4-hydroxy-phenyl)-quinoxalin-2-yl]-3-propyl-thiourea], 237 to 239 °C; as for `CC(C)NC(=S)Nc1cnc2ccc(-c3cc(Cl)c(O)c(Cl)c3)cc2n1` [Compound 91, 1-[7-(3,5-Dichloro-4-hydroxy-phenyl)-quinoxalin-2-yl]-3-isopropyl-thiourea], 276 to 278 °C. For `Oc1c(Cl)cc(-c2ccc3ncc(NC(=S)NC4CCCCCC4)nc3c2)cc1Cl` [Compound 92, 1-Cycloheptyl-3-[7-(3,5-dichloro-4-hydroxy-phenyl)-quinoxalin-2-yl]-thiourea] the value was 281 to 283 °C; for `CC(C)NC(=O)Nc1cnc2ccc(-c3ccc(O)c(Cl)c3)cc2n1` [Compound 95, 1-[7-(3-Chloro-4-hydroxy-phenyl)-quinoxalin-2-yl]-3-isopropyl-urea], 275 to 277 °C.

By melting point is commonly meant the temperature of the solid-liquid transition.
